These results are taken from patent publication US20260297542A1, “HERBICIDE RESISTANT PLANTS” (SYNGENTA CROP PROTECTION AG, priority 2023, published 2026).

Where a chain is given by its changes, count along the chain named.

Common to all, as to assay: E. coli hemG growth inhibition by herbicide, AtPPO1 variant
Common to all, as to assay type: cell-based
Common to all, as to details: read-out: percentage growth inhibition

Test [1] has as its target T1, AtPPO1 G64A (Arabidopsis thaliana, UniProt P55826, G64A).
T1 construct: expressed in transfected cells; host or cells: E. coli BL21(DE3) hemG (hemG replaced by CmR), pET24a plasmid
T1 sequence (P55826 35-537 G64A): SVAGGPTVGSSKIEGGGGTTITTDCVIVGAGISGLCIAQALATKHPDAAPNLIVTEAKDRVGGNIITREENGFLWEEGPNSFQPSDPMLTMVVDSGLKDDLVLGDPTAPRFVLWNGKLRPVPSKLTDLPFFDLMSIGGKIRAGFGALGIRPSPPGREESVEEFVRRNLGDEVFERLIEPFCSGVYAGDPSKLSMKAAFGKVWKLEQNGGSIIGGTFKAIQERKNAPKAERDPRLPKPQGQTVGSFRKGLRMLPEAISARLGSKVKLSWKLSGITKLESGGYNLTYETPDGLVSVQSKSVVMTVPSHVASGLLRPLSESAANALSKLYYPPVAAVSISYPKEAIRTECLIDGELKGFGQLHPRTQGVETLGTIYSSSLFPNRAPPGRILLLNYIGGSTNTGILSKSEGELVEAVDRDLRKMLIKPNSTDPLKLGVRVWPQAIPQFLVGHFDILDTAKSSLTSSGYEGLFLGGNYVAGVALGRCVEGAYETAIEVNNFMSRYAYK
Put shortly:
(§1)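 E. coli BL21(DE3) ΔhemG::CmR complemented by AtPPO1 variants (pET24a, T7, E. coli codon-optimised); TB + 0.1 mM IPTG, 1:100 inoculum; 6.25 ppm herbicide 0/E or 0.78 ppm herbicide B vs DMSO; 24 h, 37° C, 250 rpm; OD600 at 24 h → % growth inhibition.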

The target of test [2] is T2, AtPPO1 V511N (Arabidopsis thaliana, UniProt P55826, V511N).
T2 construct: expressed in transfected cells; host or cells: E. coli BL21(DE3) hemG, pET24a plasmid
T2 sequence (P55826 35-537 V511N): T1 sequence (P55826 35-537 G64A) with A30G, V477N
The procedure, abridged: as §1

Test [3] deals with T3, AtPPO1 K281N (Arabidopsis thaliana, UniProt P55826, K281N).
T3 construct: expressed in transfected cells; host or cells: E. coli BL21(DE3) hemG (hemG replaced by CmR), pET24a plasmid
T3 sequence (P55826 35-537 K281N): T1 sequence (P55826 35-537 G64A) with A30G, K247N
The procedure, abridged:
as §1

Test [4] concerns the target T4, AtPPO1 V365M (Arabidopsis thaliana, UniProt P55826, V365M).
T4 construct: expressed in transfected cells; host or cells: E. coli BL21(DE3) hemG (pET24a, T7 promoter)
T4 sequence (P55826 35-537 V365M): T1 sequence (P55826 35-537 G64A) with A30G, V331M
Put shortly: as §1

Usually inhibition stands for the change of the read-out against control, counted positive when it falls. As to `C#CCN1C(=O)C(F)(F)Oc2cc(F)c(-n3c(=O)n(C)c(=S)n(C)c3=O)cc21` [Herbicide B, trifludimoxazin], the inhibition at 0.78 ppm was 36% in test [1], 20% in test [2], 39% in test [3] and 3% in test [4].
As for `CCOC(=O)[C@]1(C)CC(c2cc(-n3c(=O)n(C)c(=S)n(C)c3=O)c(F)cc2Cl)=NO1` [Herbicide D, ethyl (5S)-3-[2-chloro-5-(3,5-dimethyl-2,6-dioxo-4-thioxo-1,3,5-triazinan-1-yl)-4-fluoro-phenyl]-5-methyl-4H-isoxazole-5-carboxylate], the inhibition at 6.25 ppm was 38% in test [1], 22% in test [2], 37% in test [3] and 42% in test [4].
For the compound `CC(C)N(C)S(=O)(=O)NC(=O)c1cc(-n2c(=O)cc(C(F)(F)F)n(C)c2=O)c(F)cc1Cl` [Herbicide E, saflufenacil], the inhibition at 6.25 ppm was 34% in test [1], 48% in test [2], 56% in test [3] and 22% in test [4].
